Tests used:
epiphysitis = settings: oral; cited from earlier work
[1] = test system: myositis ossificans generalis; assay: Myositis ossificans generalis (Example 35); assay type: in vivo, human; settings: one teaspoon orally in split daily doses, nearly two years
Description: Their family belongs to a group of families each with a family member suffering from the disease. They have been on one teaspoon of methylsulfonylmethane orally, in split daily doses for nearly two years. […] No other child in the group is on methylsulfonylmethane and all are deteriorating physically. The disease cause is unknown but probably is a genetic/autoimmune type of disorder.

leg cramps = assay: Night leg cramps in geriatric patient (Example 26); assay type: in vivo, human; settings: 10 mg/kg/day
Procedure: Administer methylsulfonylmethane to a geriatric patient (over 65 years) suffering from chronic night leg cramps at the rate of 10 mg/kg/day, either in tablet or capsule form, as described in parent application Ser. Nos. 418,110, 584,354 or 601,771, or in admixture with one or more foodstuffs ingested daily by the patient, e.g., milk, coffee, tea, cold desserts, etc. Within about 2 days, the leg cramps will diminish in frequency or disappear.

[2] = test system: bilateral fibrinous pleuritis; assay: Bilateral fibrinous pleuritis in a breeding mare (Examples 4 and 24); assay type: in vivo, horse (mare)
Procedure: A valuable breeding mare, treated for a respiratory infection developed bilateral fibrinous pleuritis, easily heard with auscultation of the chest. After six weeks therapy with a combination of conventional antibiotics and anti-inflammatory drugs, there was little if any improvement. Conventional therapy was terminated. Methylsulfonylmethane was added to the diet of this refractory case (24 g, twice daily, over a period of 5 days). This was the only special treatment given. […] Auscultation of the chest was negative.

eye = assay: Inflammation of the eye following accidental injury (Example 14); assay type: in vivo, human; settings: 15% solution in isotonic saline
Description: A 15% solution of methylsulfonylmethane in isotonic saline was a soothing treatment for the eye following accidental injury due to particulate matter in the eye as dust or pollen.

[3] = test system: sharp pain spasms in the lower abdominal region; assay: Acute pain, comparison with codeine, subject one (Example 33); assay type: in vivo, human
Procedure: Codeine and methylsulfonylmethane were compared for the relief of pain in subject one, a person who had sharp pain spasms in the lower abdominal region. Subject's appendix had been removed. Pain began after suffering an accidental traumatic blow to the abdomen during a volley ball game. Pyelogram examination indicated no obstruction. […] Codeine (2) plus 1/4 grain with aspirin every 4 hours, provided some relief. The codeine/aspirin was discontinued and 1 g methylsulfonylmethane in warm water was given. A half-hour later all discomfort ceased. A second gram of methylsulfonylmethane in water was given 4 hours later, after which the subject continued pain free.

coat = assay: Coat quality of guinea pigs (Example 8); assay type: in vivo; settings: 2 wt. % in water, 28 days
Description: Ten 4-week old guinea pigs were housed in individual metal cages in a standard temperature room with a 12-hour light/dark cycle and acclimated over a 5-day period of feeding Purina guinea pig chow with water ad lib.
On day six, five animals were marked on the belly with red and the other five with blue water-insoluble ink. The marks were not visible when the animals were observed from above. Each animal after marking was returned to its cage and a corresponding red or blue tape affixed to the animal's watering bottle. The red marked bottles were maintained with tap water and the blue marked bottles were filled with tap water containing 2 wt. % methylsulfonylmethane. During a 28 day period, the animals were fed and allowed access to their water or water+2% methylsulfonylmethane, respectively, ad lib. On day 28, the animals were placed in common confinement on a well lighted table. Four individuals, totally unfamiliar with the test and its purpose were asked to evaluate the coat of each animal. Animals at each evaluation were removed by the evaluator and placed into one of two groups based on better or poorer quality of the animal's coat without seeing the color on the animal's belly.

[4] = test system: nutritional secondary hyperparathyroidism with obvious epiphysitis; assay: Nutritional secondary hyperparathyroidism with epiphysitis in horses (Example 3); assay type: in vivo, horse; settings: 12 grams twice daily in feed; conventional treatment 60-90 days minimum
Description: Calcium/phosphorous balance is critical in the horse, where these elements comprise roughly 70% of the mineral content of the horse's body. Calcium deficiency, or the reverse, viz., phosphorous excess, is undesirable. Phosphorous excess in feed will decrease intestinal absorption, resulting in lowered blood plasma calcium. One result is a stimulation in the dietary deficiency condition called nutritional secondary hyperparathyroidism. Calcium denied for bone development results in an enlargement of structurally defective fibrous tissue. In horse leg bones, it is called epiphysitis when stress inflammation is presented.
Two colts and four fillies were studied, all diagnosed as having nutritional secondary hyperparathyroidism with obvious epiphysitis. Each was provided with 12 grams of methylsulfonylmethane twice daily in a bran/molasses blend intermixed with their standard dry feed prior to feeding. The supplemented feed was well accepted. All signs and symptoms of this nutritional deficiency disease was corrected in from seven to ten days. Conventional treatment for correcting dietary calcium deficiency requires a minimum of 60-90 days before relief from inflammation is obtained. Except for the added methylsulfonylmethane, there was no change in the diet of these […] horses. The added dietary factor corrected this easily recognizable dietary deficiency in all of the horses.

[5] = test system: spontaneous mouse lymphomas; assay: Spontaneous mouse lymphomas, survival (Example 37); assay type: in vivo, laboratory mice; settings: 3% by wt. in water; all 12 controls dead by month 4
Procedure: Laboratory mice genetically predisposed to lymphoma development were selected for this test. Humoral immunity participation was measured as was the effect of methylsulfonylmethane on an animal's life span. One set of 12 mice were maintained as controls. The treated (T) group received identical treatment except for their water given ad lib, which contained 3% by wt. of methylsulfonylmethane in solution.
By month 4 of this test, all controls were dead, due to lymphoma development. […] These normal balb/c strain mice of group T were tested for t-lymphocyte dependent (t-d) and t-lymphocyte independent (t-i) immune responses. […] Based on these preliminary results, at high enough daily rates of ingestion, methylsulfonylmethane stimulates humoral immunity thereby providing protection to otherwise lethal spontaneous mouse lymphomas.

anticholinesterases = assay: Antagonism of lethal effects of anticholinesterases; settings: as stated in Example 19
[6] = 24 g twice daily, 5 days (Example 4)

CS(C)(=O)=O [methylsulfonylmethane]
correction of epiphysitis (epiphysitis): rapidly corrected | condition of the patient [1]: out of their wheelchair and is improving | disease process ([1]; child A. Z.): stopped | time until leg cramps diminish in frequency or disappear (leg cramps): about 2 days | response of pleuritis ([2]; 2×12 gm/day in diet, five days (Example 24)): responded favorably (normal breathing, negative ausculation of the chest) | auscultation of the chest [2, 6]: negative | breathing at fifth day [2, 6]: returned to normal | pain at fifth day [2, 6]: no longer demonstrated pain | state over the next two years ([2]; followed two years after treatment (Example 4)): normal and healthy | effect on the eye following accidental injury (eye): soothing | time until all discomfort ceased ([3]; 1 g in warm water, oral): A half-hour | pain after second gram ([3]; second gram 4 hours later): pain free | animals with blue belly mark selected as superior by fourth evaluator (coat): three | evaluators selecting the five treated animals as having superior coats (coat): Three of the four evaluators | time to correction of all signs and symptoms [4]: seven to ten | deaths by month 5 [5]: No T group mice had died | antagonism of anticholinesterases in vivo (anticholinesterases): antagonizes
